According to article PMC2119350 (The Journal of Experimental Medicine, 1992):

How the values were obtained:
I-Ed = I-Ed (Mus musculus, UniProt P01904+P01915); conditions: pH 5 as compared with pH 7; cited from earlier work
I-Ak = I-Ak (Mus musculus, UniProt P01910+P06343); assay: Peptide binding immunoassay; conditions: 250 μM unlabeled HEL(46-61) vs biotin-HEL(46-61), 68 h

| Substance | apparent affinity (I-Ed) | apparent concentration (number) of peptide-binding sites (I-Ed) | effect on dissociation (I-Ed) | rate of association (I-Ed) | nonspecific signal remaining with unlabeled competitor (I-Ak) |
| --- | --- | --- | --- | --- | --- |
| GMNAWVAWRNR.CKGTDVY [HEL(104-120)] | increased | increased | no measurable effect | increased |  |
| NTDGSTDYGILQINSR [HEL(46-61)] |  |  |  |  | < 10 % of maximal absorbance |
